# Where a name gives a salt, the structure may show the parent alone.
# Columns and labels:
# [1] = Stability of the undiluted liquid rinse conditioner; details: rinse conditioner 5wt% Armeen M2HT, 1wt% tallow 35EO
# Procedure: (§1) The performance and stability of several amine containing liquid fabric softening compositions was tested as follows:
# (§2) A wash load of 1.25 kg of terry towelling and 1.25 kg of cotton sheeting fabrics was washed at 40°C in a Miele 756 automatic with 100g of Persil Automatic (UK).
# [2] = pH of the undiluted liquid rinse conditioner; details: rinse conditioner 5wt% Armeen M2HT, 1wt% tallow 35EO
# Procedure: as §1, §2
# [3] = pH of the rinse water after adding rinse conditioner to the last rinse cycle of a machine wash; format: physicochemical; details: 90 mls rinse conditioner (about 200 ppm amine) in last rinse cycle
# Procedure: as §1, §2
# [4] = pH adjuster conc 0.3 M in product
# [5] = pH adjuster conc 0.4 M in product
# [6] = pH adjuster conc 0.6 M in product
# [7] = pH adjuster conc 0.5 M in product
# [8] = pH adjuster conc 0.9 M in product
# [9] = pH adjuster conc 0.7 M in product
# [10] = pH adjuster conc 1.0 M in product
smiles,measurement,setting,value
"O=C(O)C(=O)O [Oxalic, Oxalic acid]",undiluted product stability,[1]; pH adjuster conc 0.6 M,unstable
same,undiluted product pH,[2]; pH adjuster conc 0.6 M,0.8
same,rinse pH,[3]; [4],6.0
same,rinse pH,[3]; [5],4.8
same,rinse pH,[3]; [6],3.3
"O=C(O)CC(O)(CC(=O)O)C(=O)O [Citric, citric acid]",rinse pH,[3]; [4],5.6
same,rinse pH,[3]; [7],4.5
same,rinse pH,[3]; [8],3.8
"O=C(O)C(O)C(O)C(=O)O (centres unmarked) [Tartaric, tartaric acid]",rinse pH,[3]; [5],5.7
same,rinse pH,[3]; [7],4.5
same,rinse pH,[3]; pH adjuster conc 0.8 M in product,3.9
Cl [HCl],undiluted product pH,[2]; pH adjuster conc 0.7 M,0.2
same,undiluted product pH,[2]; pH adjuster conc 1.0 M,0.1
same,rinse pH,[3]; [9],5.2
same,rinse pH,[3]; [8],4.4
same,rinse pH,[3]; [10],3.7
"O=P(O)(O)O [o-H₃PO₄, orthophosphoric acid]",undiluted product pH,[2]; pH adjuster conc 0.6 M,1.3
same,undiluted product pH,[2]; pH adjuster conc 1.2 M,0.8
same,rinse pH,[3]; [6],5.6
same,rinse pH,[3]; [8],4.6
same,rinse pH,[3]; pH adjuster conc 1.2 M in product,3.8
"O=C(O)CC(=O)O [Malonic, malonic acid]",undiluted product stability,[1]; pH adjuster conc 0.7 M,stable
same,undiluted product pH,[2]; pH adjuster conc 0.7 M,1.5
same,rinse pH,[3]; [7],5.4
same,rinse pH,[3]; [9],4.7
same,rinse pH,[3]; [8],3.4
"O=C(O)CCC(=O)O [Succinic, succinic acid]",undiluted product stability,[1]; pH adjuster conc 1.0 M,stable
same,undiluted product stability,[1]; pH adjuster conc 1.5 M,stable
same,undiluted product pH,[2]; pH adjuster conc 1.0 M,2.3
same,undiluted product pH,[2]; pH adjuster conc 1.5 M,2.2
same,rinse pH,[3]; [10],4.5
same,rinse pH,[3]; pH adjuster conc 1.5 M in product,4.2
